What all share (assay): relative viability (nuclei count vs DMSO), 5 days (fraction); higher = more cells survive
Compound in the assay “BAY61-3606 + Bortezomib”: COC1=C(C=C(C=C1)C2=CC3=NC=CN3C(=N2)NC4=C(C=CC=N4)C(=O)N)OC [BAY61-3606] + CC(C)C[C@H](NC(=O)[C@H](Cc1ccccc1)NC(=O)c1cnccn1)B(O)O [Bortezomib] (partner 0.002 µM)
The method in brief:
(§1)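 The day after seeding in 1536-well plates, lung cancer cell lines were treated by pin tool with a single drug, or with a fixed anchor-drug dose together with five library-drug doses (not always all listed) in √10 steps. After 5 days, a combined fix-and-stain solution (final 0.05% Triton X-100, 1% formaldehyde, 1 ug/ml Hoechst) was added. Nuclei counted on 4× images gave relative viability as treated counts over vehicle counts, reported as the median of duplicate plates.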

Compound in the assay “BAY61-3606 + OSI-027”: COC1=C(C=C(C=C1)C2=CC3=NC=CN3C(=N2)NC4=C(C=CC=N4)C(=O)N)OC [BAY61-3606] + COc1cccc2cc(-c3nc([C@H]4CC[C@H](C(=O)O)CC4)n4ncnc(N)c34)[nH]c12 [OSI-027] (partner 0.5 µM)
The method in brief: as §1

Compound in the assay “BAY61-3606 + Phenformin”: COC1=C(C=C(C=C1)C2=CC3=NC=CN3C(=N2)NC4=C(C=CC=N4)C(=O)N)OC [BAY61-3606] + N=C(N)NC(=N)NCCc1ccccc1 [Phenformin] (partner 250 µM)
An outline of the steps:
as §1

Compound in the assay “Doxorubicin + Foretinib”: COc1cccc2c1C(=O)c1c(O)c3c(c(O)c1C2=O)C[C@@](O)(C(=O)CO)C[C@@H]3O[C@H]1C[C@H](N)[C@H](O)[C@H](C)O1 [Doxorubicin] + COc1cc2c(Oc3ccc(NC(=O)C4(C(=O)Nc5ccc(F)cc5)CC4)cc3F)ccnc2cc1OCCCN1CCOCC1 [Foretinib] (partner 0.25 µM)
An outline of the steps: as §1

On to UMC-11, for which the relative viability in the assay with BAY61-3606 + Bortezomib (first compound 0.02 µM) amounted to 0.947; with BAY61-3606 + Bortezomib (first compound 0.06325 µM), 0.616; in the assay with BAY61-3606 + Bortezomib (first compound 0.2 µM) it was 0.643; with BAY61-3606 + Bortezomib (first compound 0.6325 µM), 0.849; in the assay with BAY61-3606 + Bortezomib (first compound 2 µM) it was 0.734; with BAY61-3606 + OSI-027 (first compound 0.02 µM), 0.544. Further, the relative viability with BAY61-3606 + OSI-027 (first compound 0.06325 µM) worked out at 0.467; with BAY61-3606 + OSI-027 (first compound 0.2 µM), 0.476; in the assay with BAY61-3606 + OSI-027 (first compound 0.6325 µM), 0.461; in the assay with BAY61-3606 + OSI-027 (first compound 2 µM), 0.375; with BAY61-3606 + Phenformin (first compound 0.02 µM), 0.333; with BAY61-3606 + Phenformin (first compound 0.06325 µM), 0.339. Also, the relative viability came out at 0.334 in the assay with BAY61-3606 + Phenformin (first compound 0.2 µM); 0.332 with BAY61-3606 + Phenformin (first compound 0.6325 µM); 0.298 with BAY61-3606 + Phenformin (first compound 2 µM); 0.963 with Doxorubicin + Foretinib (first compound 0.001 µM); 1.02 with Doxorubicin + Foretinib (first compound 0.003162 µM); 1.02 with Doxorubicin + Foretinib (first compound 0.01 µM). Further, the relative viability with Doxorubicin + Foretinib (first compound 0.03162 µM) was determined as 0.685; with Doxorubicin + Foretinib (first compound 0.1 µM), 0.644.

These data come from the supplement of paper PMC10307832.
